Results as given in patent publication EP4424327A1, “METHOD OR AGENT WITH HDAC REGULATOR, FOR TREATMENT OF DIABETES AND COMPLICATIONS” (Biozipcode, Inc., priority 2021, dated 2023).
Where a SMILES comes first, the peptide text is derived from it. [ ]: non-standard residue; d: D form. Aoe = N[C@@H](CCCCCC(=O)[C@@H]1CO1)C(=O)O

Experiment: Treatment of diabetes mellitus with other HDAC regulators instead of givinostat (Example 7)
Type: in vivo
Details: used instead of givinostat; model and dose not stated
In the case of C=CCSSSCC=C [diallyl trisulfide], the diabetes mellitus outcome is reported as “similarly cured”.
In the case of CCCC(=O)[O-].[Na+] [sodium butyrate], the diabetes mellitus outcome is reported as “similarly cured”.
With Nc1ccccc1NC(=O)c1ccc(CNc2nccc(-c3cccnc3)n2)cc1 [mocetinostat] the diabetes mellitus outcome was “similarly cured”.
In the case of CCCC(=O)OCOC(=O)C(C)(C)C [(pivaloyloxy)methyl butyrate], the diabetes mellitus outcome is reported as “similarly cured”.
For O=C(CCCCCCCC(=O)NO)NO [azelaoyl-bis-hydroxamic acid], the diabetes mellitus outcome was “similarly cured”.
In the case of O=C(CCCCCCSc1ccc2ccccc2c1)NO [(N-hydroxy-7-2-naphthylthio)heptanomide], the diabetes mellitus outcome is reported as “similarly cured”.
For O=C(/C=C/c1cccc(S(=O)(=O)Nc2ccccc2)c1)NO [belinostat], the diabetes mellitus outcome was “similarly cured”.
In the case of CCCCc1nc2cc(/C=C/C(=O)NO)ccc2n1CCN(CC)CC [pracinostat], the diabetes mellitus outcome is reported as “similarly cured”.
For CC(=O)Nc1ccc(C(=O)Nc2ccccc2N)cc1 [tacedinaline], the diabetes mellitus outcome was “similarly cured”.
For CN(C)Cc1c(C(=O)NCCOc2ccc(C(=O)NO)cc2)oc2ccccc12 [abexinostat], the diabetes mellitus outcome was “similarly cured”.
In the case of O=C(C=Cc1cccc(C(=O)NO)c1)NO [m-carboxycinnamic acid bis-hydroxamide], the diabetes mellitus outcome is reported as “similarly cured”.
In the case of CN(C)c1ccc(C(=O)NCc2ccc(/C=C/C(=O)NO)cc2)cc1 [SK-7041], the diabetes mellitus outcome is reported as “similarly cured”.
With O=C(NO)c1cnc(N2C[C@@H]3[C@H](C2)[C@H]3NCc2ccc3cc(F)ccc3n2)nc1 [nanatinostat] the diabetes mellitus outcome was “similarly cured”.
In the case of O=C(O)CCCc1ccccc1 [4-phenylbutyric acid], the diabetes mellitus outcome is reported as “similarly cured”.
In the case of O=C1N[C@@H](Cc2ccccc2)C(=O)N2CCC[C@@H]2C(=O)N[C@@H](CCCCCC(=O)[C@@H]2CO2)C(=O)N[C@H]1Cc1ccccc1 [trapoxin] (cyclo(FF[dP][Aoe])), the diabetes mellitus outcome is reported as “similarly cured”.
With CC(/C=C/C(=O)NO)=C\[C@@H](C)C(=O)c1ccc(N(C)C)cc1 [trichostatin A] the diabetes mellitus outcome was “similarly cured”.
In the case of O=C(/C=C/c1ccc(CN(CCO)CCc2c[nH]c3ccccc23)cc1)NO [dacinostat], the diabetes mellitus outcome is reported as “similarly cured”.
In the case of O=C(CCCCCN1C(=O)c2cccc3cccc(c23)C1=O)NO [scriptaid], the diabetes mellitus outcome is reported as “similarly cured”.
With O=C(CCCCCCC(=O)Nc1ccc([C@H]2O[C@@H](CSc3nc(-c4ccccc4)c(-c4ccccc4)o3)C[C@@H](c3ccc(CO)cc3)O2)cc1)NO [Tubacin] the diabetes mellitus outcome was “similarly cured”.
In the case of CN(C)Cc1ccc(S(=O)(=O)n2ccc(/C=C/C(=O)NO)c2)cc1 [resminostat], the diabetes mellitus outcome is reported as “similarly cured”.
For O=C(CCC1=CCCN(CCCc2ccccc2)C1=O)NO [KBH-A42], the diabetes mellitus outcome was “similarly cured”.
In the case of O=C(CCCCCCNC(=O)c1cnc(N(c2ccccc2)c2ccccc2)nc1)NO [rocilinostat], the diabetes mellitus outcome is reported as “similarly cured”.
In the case of Cn1cc(CNCC2CCN(c3ncc(C(=O)NO)cn3)CC2)c2ccccc21 [quisinostat], the diabetes mellitus outcome is reported as “similarly cured”.
For O=C(CCCCCCC(=O)Nc1ccccc1)NO [vorinostat, suberoylanilide hydroxamic acid], the diabetes mellitus outcome was “similarly cured”.
With CN(C)CCCNC(=O)/C(=C/CCCCC(=O)NO)COc1cccc2ccccc12 [CG200745] the diabetes mellitus outcome was “similarly cured”.
With Nc1ccccc1NC(=O)c1ccc(CNC(=O)OCc2cccnc2)cc1 [entinostat] the diabetes mellitus outcome was “similarly cured”.
